Laboratory results: patent US8852664B2, “Neo-menthyl derivatives as flavor materials” (Symrise AG, priority 2008, dated 2014)

Test: Flavor profile determined by a trained panel of at least 5 testers
Format: in vivo
Conditions: table of further examples, prepared from racemic neo-menthol or neo-menthylamine and tasted
Protocol: The flavor profiles were determined by a trained panel of at least 5 testers by tasting against a 0.5% strength salt and a 0.5% strength sugar solution

| Molecule | Flavor Profile |
| --- | --- |
| CCNC(=O)O[C@H]1C[C@H](C)CC[C@H]1C(C)C (racemic) | cooling, umami, menthol note |
| CC(C)[C@@H]1CC[C@@H](C)C[C@@H]1OC(=O)NCCCO (racemic) | soapy, vegetable, asparagus, potato, mouthfeel, slightly umami |
| COCCNC(=O)O[C@H]1C[C@H](C)CC[C@H]1C(C)C (racemic) | sweet, umami |
| COCCNC(=O)N[C@H]1C[C@H](C)CC[C@H]1C(C)C (racemic) | fishy, salty, umami |
| CCOCCCNC(=O)O[C@H]1C[C@H](C)CC[C@H]1C(C)C (racemic) | rancid, musty, bitter, umami |
| CC(C)[C@@H]1CC[C@@H](C)C[C@@H]1NC(=O)NCCOCCO (racemic) | fatty, oily (fish), umami |
| CCOCCCNC(=O)N[C@H]1C[C@H](C)CC[C@H]1C(C)C (racemic) | fatty, tallow, dry- dusty, long-lasting, umami |
| CC(C)[C@@H]1CC[C@@H](C)C[C@@H]1NC(=O)NCCO (racemic) | alga, roasted note, umami, sweet |
| CC(C)[C@@H]1CC[C@@H](C)C[C@@H]1OC(=O)NCCOCCO (racemic) | fatty, tallow, oily, salty, metallic |
| CC(C)[C@@H]1CC[C@@H](C)C[C@@H]1OC(=O)NCC1CCCO1 (mixture of isomers) | bitter, long-lasting, umami |
| CC(C)[C@@H]1CC[C@@H](C)C[C@@H]1OC(=O)NC1CCCC1 (racemic) | bitter, salty |
| CC(C)[C@@H]1CC[C@@H](C)C[C@@H]1NC(=O)NCc1ccccc1 (racemic) | long-lasting, umami |
| CC(C)[C@@H]1CC[C@@H](C)C[C@@H]1NC(=O)NC1CCCC1 (racemic) | bitter, astringent, long-lasting, salty, metallic |
| CC(C)[C@@H]1CC[C@@H](C)C[C@@H]1NC(=O)NCC1CCCO1 (mixture of isomers) | salty, weakly umami |
| CC(C)[C@@H]1CC[C@@H](C)C[C@@H]1NC(=O)NCC1COC(C)(C)O1 (mixture of isomers) | sweet, umami |
| COCC(C)NC(=O)O[C@H]1C[C@H](C)CC[C@H]1C(C)C (mixture of isomers) | bitter, metallic, umami |
| CC(C)[C@@H]1CC[C@@H](C)C[C@@H]1OC(=O)NCc1ccc2c(c1)OCO2 (racemic) | bitter, umami |
| CC(C)[C@@H]1CC[C@@H](C)C[C@@H]1NC(=O)NC1CC1 (racemic) | bitter, long-lasting, salty, umami |
| CC(C)[C@@H]1CC[C@@H](C)C[C@@H]1NC(=O)NCc1ccc2c(c1)OCO2 (racemic) | salty, weakly umami |
| CC(C)[C@@H]1CC[C@@H](C)C[C@@H]1OC(=O)NC1CCCCC1 (racemic) | weakly sweet and weakly umami |
| CC(C)[C@@H]1CC[C@@H](C)C[C@@H]1OC(=O)NCC1COC(C)(C)O1 (mixture of isomers) | sweet, bitter, caramel, salty |
| CCOC(=O)CC(C)NC(=O)O[C@H]1C[C@H](C)CC[C@H]1C(C)C (mixture of isomers) | bitter, dry-dusty, tingling, slightly umami |
| CC(C)[C@@H]1CC[C@@H](C)C[C@@H]1OC(=O)NC1CC1 (racemic) | bitter, salty, umami |
| CC(C)[C@@H]1CC[C@@H](C)C[C@@H]1OC(=O)Nc1ccccc1 (racemic) | bitter, dry, dusty, umami, dull |
| CC(C)[C@@H]1CC[C@@H](C)C[C@@H]1OC(=O)NCCCCO (racemic) | slightly bitter, salty, umami |
| CC(C)[C@@H]1CC[C@@H](C)C[C@@H]1NC(=S)NC1CCCC1 (racemic) | bitter, long-lasting, umami, metallic |
| COCCCNC(=S)N[C@H]1C[C@H](C)CC[C@H]1C(C)C (racemic) | very bitter, umami |
| CCNC(=S)N[C@H]1C[C@H](C)CC[C@H]1C(C)C (racemic) | bitter, dry-dusty, umami |
| COCC(C)NC(=S)N[C@H]1C[C@H](C)CC[C@H]1C(C)C (mixture of isomers) | bitter, slightly umami |
| CC(C)[C@@H]1CC[C@@H](C)C[C@@H]1NC(=S)NC1CC1 (racemic) | bitter, mouthfeel, umami |

Same assay, conditions: trained panel of at least 5 testers, tasting against a 0.5% strength salt and a 0.5% strength sugar solution

| Molecule | Flavor Profile |
| --- | --- |
| 1-(3-Hydroxy-propyl)-3-((1S,2S,5R)-2-isopropyl-5-methyl-cyclohexyl)-urea (3)/1-(3-Hydroxy-propyl)-3-((1R,2R,5S)-2-isopropyl-5-methyl-cyclohexyl)-urea (4) [Synthesis Example 2] | fishy, salty, weakly umami |
| 1-((1S,2S,5R)-2-Isopropyl-5-methyl-cyclohexyl)-3-(2-methoxy-1-methyl-ethyl)-urea (5)/1-((1R,2R,5S)-2-isopropyl-5-methyl-cyclohexyl)-3-(2-methoxy-1-methyl-ethyl)-urea (6) [Synthesis Example 3] | long-lasting, salty, umami |
| 1-((1S,2S,5R)-2-Isopropyl-5-methyl-cyclohexyl)-3-(3-methoxy-propyl)-urea (1)/1-((1R,2R,5S)-2-isopropyl-5-methyl-cyclohexyl)-3-(3-methoxy-propyl)-urea (2) [Synthesis Example 1] | sweet, salty, metallic, umami |
| 3-[3-((1S,2S,5R)-2-Isopropyl-5-methyl-cyclohexyl)-ureido]-butyric acid ethyl ester (7)/3-[3-((1R,2R,5S)-2-isopropyl-5-methyl-cyclohexyl)-ureido]-butyric acid ethyl ester (8) [Synthesis Example 4] | bitter, salty, metallic, umami |
| 4-((1S,2S,5R)-2-Isopropyl-5-methyl-cyclohexyloxycarbonylamino)-butyric acid ethyl ester (11)/4-((1R,2R,5S)-2-isopropyl-5-methyl-cyclohexyloxycarbonylamino)-butyric acid ethyl ester (12) [Synthesis Example 6] | bitter, salty, umami |
| COCCCNC(=O)O[C@H]1C[C@H](C)CC[C@H]1C(C)C [(9), (3-methoxy-propyl)-carbamic acid (1S,2S,5R)-2-isopropyl-5-methyl-cyclohexyl ester] | umami, salty, metallic, bitter |
| COCCCNC(=O)O[C@@H]1C[C@@H](C)CC[C@@H]1C(C)C [(10), (3-methoxy-propyl)-carbamic acid (1R,2R,5S)-2-isopropyl-5-methyl-cyclohexyl ester] | umami, salty, metallic, not bitter |
| CCOC(=O)CCCNC(=O)O[C@H]1C[C@H](C)CC[C@H]1C(C)C [(11), 4-((1S,2S,5R)-2-isopropyl-5-methyl-cyclohexyloxycarbonylamino)-butyric acid ethyl ester] | salty, umami, relatively weak in comparison with the racemate |
| CCOC(=O)CCCNC(=O)O[C@@H]1C[C@@H](C)CC[C@@H]1C(C)C [(12), 4-((1R,2R,5S)-2-isopropyl-5-methyl-cyclohexyloxycarbonylamino)-butyric acid ethyl ester] | salty, umami, delayed and weaker in comparison with the racemate |
| (3-Methoxy-propyl)-carbamic acid (1S,2S,5R)-2-isopropyl-5-methyl-cyclohexyl ester (9) and (3-methoxy-propyl)-carbamic acid (1R,2R,5S)-2-isopropyl-5-methyl-cyclohexyl ester (10) [Synthesis Example 5] | sweet, salty, umami, slightly bitter |

Test: Saltiness of a stock tasted against a reference series of the same stock with different salt contents
Format: in vivo
Conditions: stock with salt content 0.3% and 3 ppm added, reference series 0.2%, 0.4%, 0.5% salt
Text: In another test, the saltiness of a stock having a salt content of 0.3% and 5 ppm of an equimolar mixture of 1-(3-hydroxy-propyl)-3-((1S,2S,5R)-2-isopropyl-5-methyl-cyclohexyl)-urea (3) and 1-(3-hydroxy-propyl)-3-((1R,2R,5S)-2-isopropyl-5-methyl-cyclohexyl)-urea (4) added was tasted. The testers evaluated this stock against a reference series of this same stock with salt contents of 0.2%, 0.3%, 0.4% and 0.5%. The saltiness of the stock with a salt content of 0.3% and 5 ppm of an equimolar mixture of 1-(3-hydroxy-propyl)-3-((1S,2S,5R)-2-isopropyl-5-methyl-cyclohexyl)-urea (3) and 1-(3-hydroxy-propyl)-3-((1R,2R,5S)-2-isopropyl-5-methyl-cyclohexyl)-urea (4) added was evaluated with a saltiness of 0.36% on average.
In another test, the saltiness of a stock having a salt content of 0.3% and 3 ppm of an equimolar mixture of (3-methoxy-propyl)-carbamic acid (1S,2S,5R)-2-isopropyl-5-methyl-cyclohexyl ester (9) and (3-methoxy-propyl)-carbamic acid (1R,2R,5S)-2-isopropyl-5-methyl-cyclohexyl ester (10) was tasted. The testers evaluated this stock against a reference series of this same stock with salt contents of 0.2%, 0.3%, 0.4% and 0.5%. […]

| Molecule | saltiness evaluated on average [%] |
| --- | --- |
| (3-Methoxy-propyl)-carbamic acid (1S,2S,5R)-2-isopropyl-5-methyl-cyclohexyl ester (9) and (3-methoxy-propyl)-carbamic acid (1R,2R,5S)-2-isopropyl-5-methyl-cyclohexyl ester (10) [Synthesis Example 5] | 0.35 |

Same assay, conditions: stock with salt content 0.3% and 5 ppm added, reference series 0.2%, 0.4%, 0.5% salt

| Molecule | saltiness evaluated on average [%] |
| --- | --- |
| 1-(3-Hydroxy-propyl)-3-((1S,2S,5R)-2-isopropyl-5-methyl-cyclohexyl)-urea (3)/1-(3-Hydroxy-propyl)-3-((1R,2R,5S)-2-isopropyl-5-methyl-cyclohexyl)-urea (4) [Synthesis Example 2] | 0.36 |

Test: Flavor comparison in American beef extract base (FIG. 1), panel of trained testers
Format: in vivo
Conditions: 1 ppm of 1:1 mixture in American beef extract base vs base with 0.05 wt. % MSG
Text: This is also shown by the spider diagram appended as FIG. 1, in which an American beef extract as a base is compared with (i) such a base having 1 ppm of a 1:1 mixture of 1-((1S,2S,5R)-2-isopropyl-5-methyl-cyclohexyl)-3-(3-methoxy-propyl)-urea (1) and 1-((1R,2R,5S)-2-isopropyl-5-methyl-cyclohexyl)-3-(3-methoxy-propyl)-urea (2) added and (ii) with such a base having 0.05 wt. % of MSG (sodium glutamate) added. The observations above apply accordingly for all mixtures to be used according to the invention.
The flavor of a 0.5% American beef extract as the base (solid dark line) was compared with the aid of tasting by a panel of trained testers with the flavor firstly of such a base to which 1 ppm of a mixture of 1-((1S,2S,5R)-2-isopropyl-5-methyl-cyclohexyl)-3-(3-methoxy-propyl)-urea (1) and 1-((1R,2R,5S)-2-Isopropyl-5-methyl-cyclohexyl)-3-(3-methoxy-propyl)-urea (2) was added (solid light line), and secondly such a base to which 0.05 wt. % MSG was added (dotted line).
The testers evaluated the strength of the test directions indicated, in each case by specifying marks on a scale of from 0 (no corresponding flavor) to 8 (very strong corresponding flavor). The average values of the respective marks are represented.

| Molecule | flavor compared with sodium glutamate (MSG) |
| --- | --- |
| 1-((1S,2S,5R)-2-Isopropyl-5-methyl-cyclohexyl)-3-(3-methoxy-propyl)-urea (1)/1-((1R,2R,5S)-2-isopropyl-5-methyl-cyclohexyl)-3-(3-methoxy-propyl)-urea (2) [Synthesis Example 1] | clear umami flavor very closely approximating sodium glutamate (MSG), which also significantly enhances the saltiness of the base but without tasting unpleasantly sweet |
